Laboratory results as given in patent US7250521B2, “Method for production of Δ1-pyrrolines” (Bayer CropScience Aktiengesellschaft, priority 2001, dated 2007).

Experiment: logP determination by HPLC on reverse-phase column (C 18), EEC directive 79/831 Annex V.A8
Assay type: physicochemical
Method: In the acidic range, the determination is carried out at pH 2.3 using the mobile phases 0.1% aqueous phosphoric acid and acetonitrile; linear gradient from 10% acetonitrile to 90% acetonitrile.
In the neutral range, the determination is carried out at pH 7.5 using the mobile phases 0.01 molar aqueous phosphate buffer solution and acetonitrile; linear gradient from 10% acetonitrile to 90% acetonitrile.

[1] = reverse-phase HPLC column (C 18), pH 2.3, acidic range, pH 2.3; 0.1% aqueous phosphoric acid/acetonitrile gradient; 43° C.; values marked a)
[2] = reverse-phase HPLC column (C 18), pH 7.5, neutral range, pH 7.5; 0.01 molar aqueous phosphate buffer/acetonitrile gradient; 43° C.; values marked b)

Row | chromatographic logP [1] | chromatographic logP [2] | SMILES
1 | 3.24 | 3.25 | Cc1cc(Cl)ccc1C1CCC(=O)N1C(=O)OC(C)(C)C (centres unmarked) [III-6]
2 | 2.43 |  | COc1ccc(C2CCC(=O)N2C(=O)OC(C)(C)C)cc1F (centres unmarked) [III-7]
3 | 2.43 |  | COc1ccc(C2CCC(=O)N2C(=O)OC(C)(C)C)cc1 (centres unmarked) [III-8]
4 | 3.83 |  | Cc1ccc(C2CCC(=O)N2C(=O)OC(C)(C)C)c(Cl)c1 (centres unmarked) [III-9]
5 | 3.54 |  | CC(C)(C)OC(=O)N1C(=O)CCC1c1ccc(Cl)cc1Cl (centres unmarked) [III-10]
6 | 3.29 |  | CC(C)(C)OC(=O)N1C(=O)CCC1c1ccc(Cl)c(Cl)c1 (centres unmarked) [III-11]
7 | 2.67 |  | CC(C)(C)OC(=O)N1C(=O)CCC1c1ccc(F)c(F)c1 (centres unmarked) [III-12]
8 | 2.93 |  | CC(C)(C)OC(=O)N1C(=O)CCC1c1ccc(Cl)cc1 (centres unmarked) [III-13]
9 | 3.3 |  | Cc1ccc(C2CCC(=O)N2C(=O)OC(C)(C)C)cc1Cl (centres unmarked) [III-14]
10 | 2.84 | 2.83 | CSc1ccc(C2CCC(=O)N2C(=O)OC(C)(C)C)cc1 (centres unmarked) [III-15]
11 | 2.69 |  | CC(C)(C)OC(=O)N1C(=O)CCC1c1ccc(F)cc1F (centres unmarked) [III-16]
12 | 3.2 |  | Cc1ccc(C2CCC(=O)N2C(=O)OC(C)(C)C)c(C)c1 (centres unmarked) [III-17]
13 | 4.71 |  | CC(C)(C)OC(=O)N1C(=O)CCC1c1ccc(C2CCCCC2)cc1 (centres unmarked) [III-18]
14 | 4.11 |  | CC(C)(C)OC(=O)N1C(=O)CCC1c1ccc(CCc2ccccc2)cc1 (centres unmarked) [III-19]
15 | 2.9 |  | Cc1ccc(C2CCC(=O)N2C(=O)OC(C)(C)C)cc1 (centres unmarked) [III-20]
16 | 2.57 |  | CC(C)(C)OC(=O)N1C(=O)CCC1c1ccc(F)cc1 (centres unmarked) [III-21]
17 | 4.17 |  | CC(C)Oc1ccc(-c2ccc(C3CCC(=O)N3C(=O)OC(C)(C)C)cc2)cc1 (centres unmarked) [III-23]
18 | 4.93 |  | CC(C)(C)OC(=O)N1C(=O)CCC1c1ccc(-c2ccc(OCc3ccc(Cl)cc3)cc2)cc1 (centres unmarked) [III-24]
19 | 5.03 |  | CC(C)(C)OC(=O)N1C(=O)CCC1c1ccc(-c2ccc(OCc3ccc(OC(F)(F)F)cc3)cc2)cc1 (centres unmarked) [III-25]
20 | 4.26 |  | CC(C)(C)OC(=O)N1C(=O)CCC1c1ccc(-c2ccc(Br)cc2)cc1 (centres unmarked) [III-27]
21 | 4.4 |  | CCOc1cc(C(C)(C)C)ccc1C1CCC(=O)N1C(=O)OC(C)(C)C (centres unmarked) [III-28]
